Data set [1] has as its target T1, RORγt ligand-binding domain (RORγt-LBD) (Homo sapiens, UniProt P51449).
T1 construct: 20 nM recombinantly expressed RORγ-LBD fused to GST
T1 sequence (P51449 269-508 limits assumed): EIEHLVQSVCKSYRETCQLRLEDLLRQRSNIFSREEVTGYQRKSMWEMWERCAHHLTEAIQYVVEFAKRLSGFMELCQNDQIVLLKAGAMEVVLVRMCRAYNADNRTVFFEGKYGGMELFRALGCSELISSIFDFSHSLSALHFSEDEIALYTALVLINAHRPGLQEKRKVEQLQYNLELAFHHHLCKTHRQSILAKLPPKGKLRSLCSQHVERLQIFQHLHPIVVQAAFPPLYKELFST
As to the kind of experiment: Time-resolved FRET (TR-FRET) RORγt coactivator assay (RIP140 peptide displacement). To be noted: ligand-dependent coactivator-RORγt binding. It is filed as biochemical. From the text: Time-resolved FRET (TR-FRET) RORγt coactivator assay was used to identify RORγ modulator compounds with ligand-dependent coactivator displacement. The assay uses a d2-labeled anti-GST antibody, synthetic N-terminally biotinylated peptide which is derived from nuclear receptor coactivator protein RIP140, and a RORγt ligand-binding domain (RORγt-LBD) that is tagged with glutathione-S-transferase (GST). The influence of compounds on the RORγ-peptide interaction relies on the binding dependent energy transfer from a donor to an acceptor fluorophor attached to the binding partner of interest. […] For reduction of background from compound fluorescence, TR-FRET method makes use of generic fluorophore labels and time resolved detection.
The assays were done in a final volume of 20 μl in a 384 well plate in a CHAPS buffer (2 mM CHAPS; 1 mM DTT, 2 mM EDTA; 0.1% BSA), containing 20 nM recombinantly expressed RORγ-LBD fused to GST, 30 nM N-terminally biotinylated peptide, 1 nM streptavidin-terbium conjugate and 20 nM d2 labeled-anti-GST. Test compounds were diluted using 10 mM stock solution. The range of the final compound concentrations used in this test was from 0.3 nM to 30 μM (logarithmic scale). DMSO content of the samples was kept at 1%. The assay was equilibrated for 2 hours in the dark at room temperature in 384 well plates (Falcon). The signal was detected by an Ultra384 reader (TECAN). […] Compounds that promote coactivator displacement induce a concentration-dependent decrease in time-resolved fluorescent signal. Data were collected and analyzed using GraphPad Prism software (GraphPad Software V5.02, San Diego Calif. USA). IC50 in μM and E max in % were reported for each compound.

Another data set addresses T2, human RORγt (Homo sapiens, UniProt P51449).
T2 sequence (P51449 1-497 isoform P51449-2): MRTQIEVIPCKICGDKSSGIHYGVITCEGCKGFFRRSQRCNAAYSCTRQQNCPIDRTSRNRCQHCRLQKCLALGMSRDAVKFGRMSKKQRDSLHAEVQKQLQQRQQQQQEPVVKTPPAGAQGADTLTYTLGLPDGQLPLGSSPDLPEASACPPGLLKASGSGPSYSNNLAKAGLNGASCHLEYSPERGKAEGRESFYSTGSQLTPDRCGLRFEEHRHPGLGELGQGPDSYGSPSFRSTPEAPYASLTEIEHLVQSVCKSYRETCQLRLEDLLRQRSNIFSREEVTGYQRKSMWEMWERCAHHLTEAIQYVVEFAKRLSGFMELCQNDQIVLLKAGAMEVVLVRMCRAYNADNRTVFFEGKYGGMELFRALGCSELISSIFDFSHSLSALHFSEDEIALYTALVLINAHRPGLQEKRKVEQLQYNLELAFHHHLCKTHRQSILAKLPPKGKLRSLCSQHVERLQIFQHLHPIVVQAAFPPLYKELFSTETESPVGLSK
In words: RORE Luciferase/RORγt transactivation assay (IL-17 promoter luciferase reporter in COS-7 cells). Conditions: RORγt activity inhibition, luciferase activity in transfected COS-7 cells, 20 h. Also noted: V5-His (named only through the vector pcDNA3.1D/V5-His-TOPO); expressed in transfected cells; host or cells: COS-7 (monkey kidney). It is filed as cell-based. The method, then:
It is well known that RORγ binds to a conserved non-coding sequence (CNS) enhancer element in the IL-17 promoter.
Culture medium was changed every 2 days.
The 4.3 Kb human IL-17 promoter containing the RORγ-specific CNS enhancer element was PCR amplified from human genomic DNA and cloned into a pGL3-TKLuc2Cp reporter plasmid.
The luciferase reporter plasmid and the RORγt overexpression plasmid were transfected into COS-7 cell line using 4 μL JetPEI™/μg of DNA. Briefly, 150 ng of DNA (ration 1/2 between RORE-Tk Luc2Cp and cDNA RORγt or the empty vector for the negative control) was served to transfect adherent COS-7 cells in a […] culture flask, in complete medium (see cos-7 cell line culture).
Cells were then detached (using trypsin) and washed by centrifugation at 300 g for 10 minutes. Cell pellet was resuspended in serum free/phenol red free DMEM and seeded in 384 well plates at a density of 10000 cells/well and then incubated for 4 h at 37° C.
Compounds were dissolved in 100% DMSO to obtain 10 mM stock solutions. For each compound, test concentrations were diluted in serum free/phenol red free DMEM using the Genesis Freedom 200™ (TECAN) and added to the cells to obtain a 0.3% DMSO final concentration (in a final volume of 40 μL per well).
The luciferase activity was then measured with 40 μL/well steady-Glo Luciferase assay system (Promega, Madison, Wis.) and after incubation at room temperature for 30 minutes. The luminescence was estimated using the Ultra384 reader (TECAN). Data were collected and analyzed using GraphPad Prism software (GraphPad Software V5.02, San Diego Calif. USA). IC50 in μM and E max in % were reported for each compound.

The values that follow come from patent publication US11077115B2, “Rorgamma modulators and uses thereof” (Genfit, priority 2017, dated 2021).

Structures can show the parent of a compound that is named as a salt.

Turning to `Cc1ccc(C(NC(=O)C2(c3ccc(N4CCS(=O)(=O)CC4)cc3)CC2)c2ccc(Cl)o2)cc1` (stereo not shown) [Cpd. 67, N-[(5-chlorofuran-2-yl)(4-methylphenyl)methyl]-1-[4-(1,1-dioxo-1-thiomorpholin-4-yl)phenyl]cyclopropane-1-carboxamide], the IC50 is under 1 µM in data set [1] and under 0.1 µM against human RORγt.

As to `COc1ccc(C(NC(=O)Cc2ccc(N3CCS(=O)(=O)CC3)c(C)c2)c2ccc(C)o2)c(N2CCC(C(F)(F)F)CC2)c1` (stereo not shown) [Cpd. 14, 2-[4-(1,1-dioxo-1-thiomorpholin-4-yl)-3-methylphenyl]-N-({4-methoxy-2-[4-(trifluoromethyl)piperidin-1-yl]phenyl}(5-methylfuran-2-yl)methyl)acetamide], the IC50 (in data set [1]; against human RORγt) was 0.1 to 1 µM each time.

Turning to `Cc1ccc(C(NC(=O)C2(c3cccc(N4CCS(=O)(=O)CC4)c3)CC2)c2ccc(C)o2)c(C)c1` (stereo not shown) [Cpd. 68, N-[(2,4-dimethylphenyl)(5-methylfuran-2-yl)methyl]-1-[3-(1,1-dioxo-1-thiomorpholin-4-yl)phenyl]cyclopropane-1-carboxamide], the half-inhibitory concentration (IC50) in data set [1] was under 1 µM; against human RORγt, 0.1 to 1 µM.

As for `Cc1ccc(C(NC(=O)Cc2ncc(N3CCS(=O)(=O)CC3)cn2)c2ccc(C)o2)c(N2CCCCC2)c1` (stereo not shown) [Cpd. 65, 2-[5-(1,1-dioxo-1-thiomorpholin-4-yl)pyrimidin-2-yl]-N-{[4-methyl-2-(piperidin-1-yl)phenyl](5-methylfuran-2-yl)methyl}acetamide], the 50% inhibitory concentration (IC50) in data set [1] is under 1 µM; against human RORγt it was under 0.1 µM.

Regarding `Cc1ccc(C(NC(=O)Cc2cnc(N3CCS(=O)(=O)CC3)nc2)c2ccc(C)o2)c(Br)c1` (stereo not shown) [Cpd. 34, N-[(2-bromo-4-methylphenyl)(5-methylfuran-2-yl)methyl]-2-[2-(1,1-dioxo-1-thiomorpholin-4-yl)pyrimidin-5-yl]acetamide], the IC50 (in data set [1]; at human RORγt) was 0.1 to 1 µM in each case.

On to `Cc1ccc(N2CCS(=O)(=O)CC2)cc1CC(=O)NC(c1ccccc1)c1ccccc1N1CCCCC1` (stereo not shown) [Cpd. 2, 2-[5-(1,1-dioxo-1-thiomorpholin-4-yl)-2-methylphenyl]-N-{phenyl[2-(piperidin-1-yl)phenyl]methyl}acetamide], for which the IC50 (in data set [1]; at human RORγt) was 1 to 10 µM in each case.

`Cc1ccc(C(NC(=O)Cc2ccc(N3CCS(=O)(=O)CC3)cc2)c2ccc(C)o2)c(C(F)(F)F)c1` (stereo not shown) [Cpd. 24, 2-[4-(1,1-dioxo-1-thiomorpholin-4-yl)phenyl]-N-{[4-methyl-2-(trifluoromethyl)phenyl](5-methylfuran-2-yl)methyl}acetamide]: the IC50 in data set [1] was 0.1 to 1 µM; on human RORγt, 1 to 10 µM.

For `Cc1ccc(N2CCCCC2)c(C(NC(=O)Cc2cnc(N3CCS(=O)(=O)CC3)nc2)c2ccc(C)o2)c1` (stereo not shown) [Cpd. 17, 2-[2-(1,1-dioxo-1-thiomorpholin-4-yl)pyrimidin-5-yl]-N-{[5-methyl-2-(piperidin-1-yl)phenyl](5-methylfuran-2-yl)methyl}acetamide], the figures for the IC50 (in data set [1]; on human RORγt) were 0.1 to 1 µM and 1 to 10 µM, respectively.

As to `Cc1ccc(C(NC(=O)Cc2cc(N3CCS(=O)(=O)CC3)ccc2C)c2ccccc2)c(N2CCOCC2)c1` (stereo not shown) [Cpd. 7, 2-[5-(1,1-dioxo-1-thiomorpholin-4-yl)-2-methylphenyl]-N-{[4-methyl-2-(morpholin-4-yl)phenyl](phenyl)methyl}acetamide], the IC50 in data set [1] fell in the range of 0.1 to 1 µM; on human RORγt it was 1 to 10 µM.

Consider `Cc1ccc(C(NC(=O)Cc2cnc(N3CCS(=O)(=O)CC3)nc2)c2ccc(C)o2)c(C)c1` (stereo not shown) [Cpd. 35, N-[(2,4-dimethylphenyl)(5-methylfuran-2-yl)methyl]-2-[2-(1,1-dioxo-1-thiomorpholin-4-yl)pyrimidin-5-yl]acetamide], for which the figures for the half-inhibitory concentration (IC50) (in data set [1]; against human RORγt) were 0.1 to 1 µM and 1 to 10 µM, respectively.

Regarding `Cc1ccc(C(NC(=O)C2(c3cccc(N4CCS(=O)(=O)CC4)c3)CC2)c2ccc(C)o2)c(N2CCCCC2)c1` (stereo not shown) [Cpd. 58, 1-[3-(1,1-dioxo-1-thiomorpholin-4-yl)phenyl]-N-{[4-methyl-2-(piperidin-1-yl)phenyl](5-methylfuran-2-yl)methyl}cyclopropane-1-carboxamide], the results for the IC50 (in data set [1]; on human RORγt) were under 1 µM and 0.1 to 1 µM, respectively.

In data set [1], `Cc1ccc(C(NC(=O)Cc2cnc(N3CCS(=O)(=O)CC3)nc2)c2ccc(C)o2)c(Cl)c1` (stereo not shown) [Cpd. 51, N-[(2-chloro-4-methylphenyl)(5-methylfuran-2-yl)methyl]-2-[2-(1,1-dioxo-1-thiomorpholin-4-yl)pyrimidin-5-yl]acetamide] displayed an IC50 of 1 to 10 µM.

Turning to `Cc1ccc(C(NC(=O)Cc2ccc(O)c(N3CCS(=O)(=O)CC3)c2)c2ccc(C)o2)c(N2CCCCC2)c1` (stereo not shown) (as salt: HCl) [Cpd. 39, 2-[3-(1,1-dioxo-1-thiomorpholin-4-yl)-4-hydroxyphenyl]-N-{[4-methyl-2-(piperidin-1-yl)phenyl](5-methylfuran-2-yl)methyl}acetamide], the melting point amounted to 118 °C.

Take `Cc1ccc(C(NC(=O)Cc2ccc(N3CCS(=O)(=O)CC3)cc2)c2ccccc2)c(Br)c1` (stereo not shown) (as salt: HCl) [Cpd. 9, N-[(2-bromo-4-methylphenyl)(phenyl)methyl]-2-[4-(1,1-dioxo-1-thiomorpholin-4-yl)phenyl]acetamide]: the melting point worked out at 142 °C.

Consider `Cc1ccc(N2CCCCC2)c(C(NC(=O)Cc2cnc(N3CCS(=O)(=O)CC3)nc2)c2ccc(C)o2)c1` (stereo not shown) (as salt: HCl) [Cpd. 17, 2-[2-(1,1-dioxo-1-thiomorpholin-4-yl)pyrimidin-5-yl]-N-{[5-methyl-2-(piperidin-1-yl)phenyl](5-methylfuran-2-yl)methyl}acetamide], for which the melting point was determined as 159 °C.

As to `Cc1ccc(C(NC(=O)C2(c3cnc(N4CCS(=O)(=O)CC4)nc3)CC2)c2ccc(C)o2)c(C)c1` (stereo not shown) (as salt: HCl) [Cpd. 48, N-[(2,4-dimethylphenyl)(5-methylfuran-2-yl)methyl]-1-[2-(1,1-dioxo-1-thiomorpholin-4-yl)pyrimidin-5-yl]cyclopropane-1-carboxamide], the melting point amounted to 82 °C.

The compound `Cc1ccc(C(NC(=O)C2(c3ccc(N4CCS(=O)(=O)CC4)cc3)CC2)c2ccc(Cl)o2)cc1` (stereo not shown) (as salt: HCl) [Cpd. 67, N-[(5-chlorofuran-2-yl)(4-methylphenyl)methyl]-1-[4-(1,1-dioxo-1-thiomorpholin-4-yl)phenyl]cyclopropane-1-carboxamide] showed a melting point of 157 °C.
